Test system: HT-29
Experiment: Antiproliferative activity against human HT29 cells
Format: functional

Row | Compound | GI50 [µM]
1 | CCNC(=O)Nc1ccc(C(C)(C)C)cc1 | 83
2 | CCCNC(=O)Nc1ccc(C(C)(C)C)cc1 | 35
3 | CCCCc1ccc(NC(=O)NCCCl)cc1 | 22
4 | C[C@@H](CCl)NC(=O)Nc1ccc(C(C)(C)C)cc1 | 55
5 | CC[C@H](CCl)NC(=O)Nc1ccc(I)cc1 | 22
6 | CC[C@H](CCl)NC(=O)Nc1ccc(C(C)(C)C)cc1 | 56
7 | CC(C)c1ccc(NC(=O)N[C@@H](C)CCl)cc1 | 69
8 | O=C(NCCCl)Nc1ccc2[nH]ncc2c1 | 48
9 | CCNC(=O)Nc1ccc(C(C)C)cc1 | 400
10 | C[C@@H](CCl)NC(=O)Nc1ccc2c(c1)-c1ccccc1C2 | 28
11 | CCC(C)c1ccc(NC(=O)N[C@H](CC)CCl)cc1 (stereo partly specified) | 56
12 | CCC(C)c1ccc(NC(=O)N[C@@H](CC)CCl)cc1 (stereo partly specified) | 109
13 | CC[C@H](CCl)NC(=O)Nc1ccc(C(C)C)cc1 | 30
14 | O=C(NCCCl)Nc1cccc2c1CCCC2 | 400
15 | CCC(C)c1ccc(NC(=O)N[C@@H](C)CCl)cc1 (stereo partly specified) | 54
16 | CCNC(=O)Nc1ccc(C(C)CC)cc1 (stereo unspecified) | 132

Row | Compound | GI50 [µM]
17 | CCC(C)c1ccc(NC(=O)NC)cc1 (stereo unspecified) | 400
18 | C[C@@H](CCl)NC(=O)Nc1ccc2ccccc2c1 | 181
19 | CNC(=O)Nc1ccc(C(C)(C)C)cc1 | 400
20 | CNC(=O)Nc1ccc(C(C)C)cc1 | 400
21 | CC(C)(C)Cc1ccc(NC(=O)NCCCl)cc1 | 36
22 | CC[C@@H](CCl)NC(=O)Nc1ccc(C(C)(C)C)cc1 | 109
23 | C[C@@H](CCl)NC(=O)Nc1ccc(I)cc1 | 49
24 | CCCNC(=O)Nc1ccc(C(C)C)cc1 | 76
25 | Cc1ccc(NC(=O)NCCCl)cc1 | 23
26 | CC(C)CCc1ccc(NC(=O)NCCCl)cc1 | 33
27 | CCCNC(=O)Nc1ccc(C(C)CC)cc1 (stereo unspecified) | 133
28 | CCCc1ccc(NC(=O)NCCCl)cc1 | 23
29 | CC[C@@H](CCl)NC(=O)Nc1ccc(C(C)C)cc1 | 54
30 | CC[C@@H](CCl)NC(=O)Nc1ccc(I)cc1 | 51
31 | C[C@@H](CCl)NC(=O)Nc1ccc2c(c1)CCC2 | 100

More lines, now with the values ahead:

Row | GI50 [µM] | Compound
32 | 6.4 | CCc1ccc(NC(=O)NCCCl)cc1
33 | 5.4 | Cc1ccc(NC(=O)NCCCl)cc1C
34 | 21 | CC(C)(C)c1ccc(NC(=O)NCCCCl)cc1
35 | 8.9 | CCC(C)c1ccc(NC(=O)N[C@H](C)CCl)cc1 (stereo partly specified)
36 | 8.9 | C[C@H](CCl)NC(=O)Nc1ccc(C(C)(C)C)cc1
37 | 6.6 | C[C@H](CCl)NC(=O)Nc1ccc2c(c1)-c1ccccc1C2
38 | 4.9 | C[C@H](CCl)NC(=O)Nc1ccc2ccccc2c1
39 | 0.85 | C[C@H](CCl)NC(=O)Nc1ccc(I)cc1
40 | 12 | CCCCCc1ccc(NC(=O)NCCCl)cc1
41 | 5.5 | O=C(NCCCl)Nc1ccc2ccccc2c1
42 | 10 | O=C(NCCCl)Nc1ccc2c(c1)CCC2
43 | 13 | O=C(NCCCl)Nc1ccc2c(c1)-c1ccccc1C2
44 | 6.4 | C[C@H](CCl)NC(=O)Nc1ccc2c(c1)CCC2
45 | 1.1 | CC(C)c1ccc(NC(=O)N[C@H](C)CCl)cc1
46 | 20 | Cc1cc(C)cc(NC(=O)NCCCl)c1
47 | 9.1 | CC(C)(C)c1ccc(NC(=O)NCCCl)cc1
48 | 3.6 | CCC(C)c1ccc(NC(=O)NCCCl)cc1 (stereo unspecified)
49 | 21 | CC(C)Cc1ccc(NC(=O)NCCCl)cc1
50 | 12 | CCCCCCc1ccc(NC(=O)NCCCl)cc1
51 | 3.9 | O=C(NCCCl)Nc1ccc(I)cc1
52 | 9 | O=C(NCCCl)Nc1ccc(Br)cc1
53 | 14 | O=C(NCCCl)Nc1ccc(Cl)cc1
54 | 5 | CC(C)c1ccc(NC(=O)NCCCl)cc1

Test system: MDA-MB-231
Experiment: Antiproliferative activity against human MDA-MB-231 cells
Format: functional

Row | GI50 [µM] | Compound
55 | 587 | Cc1cc(C)c(NC(=O)NCCCl)c(C)c1
56 | 88 | Cc1cccc(NC(=O)NCCCl)c1
57 | 48 | CCCCCCCCc1ccc(NC(=O)NCCCl)cc1
58 | 587 | CCCCCCCCCCCc1ccc(NC(=O)NCCCl)cc1
59 | 400 | CCc1ccccc1NC(=O)NCCCl
60 | 220 | O=C(NCCCl)Nc1cccc2ccccc12
61 | 16 | CCc1cccc(NC(=O)NCCCl)c1
